Experimental data: patent US8258114B2, “Modulation of glucose-6-phosphatase translocase expression” (Isis Pharmaceuticals, Inc., priority 2004, dated 2012)
Oligonucleotides are written 5' to 3', each unit as a sugar letter and its base; * is a phosphorothioate linkage, no mark a phosphodiester; rarer units and linkages stand in square brackets, end groups in braces. Plain capitals give the bases only. e = 2'-O-(2-methoxyethyl) (MOE); [5mC] = 5-methylcytosine; d = 2'-deoxy (DNA)

Key:
[1] = system: human glucose-6-phosphatase translocase mRNA; assay: Antisense inhibition of human glucose-6-phosphatase translocase mRNA in T-24 cells, real-time PCR (Table 4); format: cell-based; settings: 100 nM oligonucleotide, LIPOFECTIN, mRNA by real-time PCR
Method: The transitional cell bladder carcinoma cell line T-24 was obtained from the American Type Culture Collection (ATCC) (Manassas, Va.). T-24 cells were routinely cultured in complete McCoy's 5A basal media (Invitrogen Life Technologies, Carlsbad, Calif.) supplemented with 10% fetal bovine serum (Invitrogen Life Technologies, Carlsbad, Calif.). Cells were routinely passaged by trypsinization and dilution when they reached approximately 90% confluence. Cells were seeded into 96-well plates (Falcon-Primaria #3872) at a density of approximately 4000-6000 cells/well for use in oligomeric compound transfection experiments. When cells reached 65-75% confluency, they were treated with oligonucleotide. […] This transfection mixture was incubated at room temperature for approximately 0.5 hours. For cells grown in 96-well plates, wells were washed once with 100 μL OPTI-MEMTM-1 and then treated with 130 μL of the transfection mixture. Cells grown in 24-well plates or other standard tissue culture plates are treated similarly, using appropriate volumes of medium and oligonucleotide. Cells are treated and data are obtained in duplicate or triplicate. After approximately 4-7 hours of treatment at 37° C., the medium containing the transfection mixture was replaced with fresh culture medium. Cells were harvested 16-24 hours after oligonucleotide treatment. […] Prior to quantitative PCR analysis, primer-probe sets specific to the target gene being measured were evaluated for their ability to be “multiplexed” with a GAPDH amplification reaction. After isolation the RNA is subjected to sequential reverse transcriptase (RT) reaction and real-time PCR, both of which are performed in the same well. RT and PCR reagents were obtained from Invitrogen Life Technologies (Carlsbad, Calif.). […] The RT reaction was carried out by incubation for 30 minutes at 48° C. Following a 10 minute incubation at 95° C. to activate the PLATINUM® Taq, 40 cycles of a two-step PCR protocol were carried out: 95° C. for 15 seconds (denaturation) followed by 60° C. for 1.5 minutes (annealing/extension). Gene target quantities obtained by RT, real-time PCR were normalized using either the expression level of GAPDH, a gene whose expression is constant, or by quantifying total RNA using RiboGreenTM (Molecular Probes, Inc. Eugene, Oreg.). GAPDH expression was quantified by RT, real-time PCR, by being run simultaneously with the target, multiplexing, or separately. Total RNA was quantified using RiboGreenTM RNA quantification reagent (Molecular Probes, Inc. Eugene, Oreg.). A series of oligomeric compounds was designed to target different regions of human glucose-6-phosphatase translocase, using published sequences cited in Table 1. All compounds in Table 4 are chimeric oligonucleotides (“gapmers”) 20 nucleotides in length, composed of a central “gap” region consisting of 10 2'-deoxynucleotides, which is flanked on both sides ([NT]) by five-nucleotide “wings”. The wings are composed of 2'-O-(2-methoxyethyl) nucleotides, also known as 2'-MOE nucleotides. The internucleoside (backbone) linkages are phosphorothioate throughout the oligonucleotide. All cytidine residues are 5-methylcytidines. The compounds were analyzed for their effect on gene target mRNA levels by quantitative real-time PCR as described in other examples herein, using the following primer-probe set designed to hybridize to human glucose-6-phosphatase translocase: Forward primer: [NT] (incorporated herein as SEQ ID NO: 24) Reverse primer: [NT] (incorporated herein as SEQ ID NO: 25) And the PCR probe was: […] (incorporated herein as SEQ ID NO: 26), where FAM is the fluorescent dye and TAMRA is the quencher dye. Data are from experiments in which T-24 cells were treated with 100 nM of the antisense oligonucleotides of the present invention using LIPOFECTINTM. A reduction in expression is expressed as percent inhibition in Table 4. If present, “N.D.” indicates “not determined”. The control oligomeric compound used was SEQ ID NO: 11. […]

[2] = system: human glucose-6-phosphatase translocase mRNA; assay: Antisense inhibition of human glucose-6-phosphatase translocase mRNA in HepG2 cells (Table 11); format: cell-based; design: concentration or dose not given beside the values; settings: LIPOFECTIN, mRNA by real-time PCR
Method: The human hepatoblastoma cell line HepG2 was obtained from the American Type Culture Collection (Manassas, Va.). HepG2 cells were routinely cultured in Eagle's MEM supplemented with 10% fetal bovine serum, 1 mM non-essential amino acids, and 1 mM sodium pyruvate (Invitrogen Life Technologies, Carlsbad, Calif.). Cells were routinely passaged by trypsinization and dilution when they reached approximately 90% confluence. Multiwell culture plates are prepared for cell culture by coating with a 1:100 dilution of type 1 rat tail collagen (BD Biosciences, Bedford, Mass.) in phosphate-buffered saline. The collagen-containing plates were incubated at 37° C. for approximately 1 hour, after which the collagen was removed and the wells were washed twice with phosphate-buffered saline. Cells were seeded into 96-well plates (Falcon-Primaria #353872, BD Biosciences, Bedford, Mass.) at a density of approximately 8,000 cells/well for use in oligomeric compound transfection experiments.
When cells reached 65-75% confluency, they were treated with oligonucleotide. Oligonucleotide was mixed with LIPOFECTIN™ Invitrogen Life Technologies, Carlsbad, Calif.) in Opti-MEM™-1 reduced serum medium (Invitrogen Life Technologies, Carlsbad, Calif.) to achieve the desired concentration of oligonucleotide and a LIPOFECTIN™ concentration of 2.5 or 3 μg/mL per 100 nM oligonucleotide. This transfection mixture was incubated at room temperature for approximately 0.5 hours. For cells grown in 96-well plates, wells were washed once with 100 μL OPTI-MEM™-1 and then treated with 130 μL of the transfection mixture. Cells grown in 24-well plates or other standard tissue culture plates are treated similarly, using appropriate volumes of medium and oligonucleotide. Cells are treated and data are obtained in duplicate or triplicate. After approximately 4-7 hours of treatment at 37° C., the medium containing the transfection mixture was replaced with fresh culture medium. Cells were harvested 16-24 hours after oligonucleotide treatment.
Quantitation of glucose 6-phosphatase translocase mRNA levels was accomplished by real-time quantitative PCR using the ABI PRISM™ 7600, 7700, or 7900 Sequence Detection System (PE-Applied Biosystems, Foster City, Calif.) according to manufacturer's instructions.
Prior to quantitative PCR analysis, primer-probe sets specific to the target gene being measured were evaluated for their ability to be “multiplexed” with a GAPDH amplification reaction. After isolation the RNA is subjected to sequential reverse transcriptase (RT) reaction and real-time PCR, both of which are performed in the same well. RT and PCR reagents were obtained from Invitrogen Life Technologies (Carlsbad, Calif.). […] The RT reaction was carried out by incubation for 30 minutes at 48° C. Following a 10 minute incubation at 95° C. to activate the PLATINUM® Taq, 40 cycles of a two-step PCR protocol were carried out: 95° C. for 15 seconds (denaturation) followed by 60° C. for 1.5 minutes (annealing/extension).
Gene target quantities obtained by RT, real-time PCR were normalized using either the expression level of GAPDH, a gene whose expression is constant, or by quantifying total RNA using RiboGreen™ (Molecular Probes, Inc. Eugene, Oreg.). GAPDH expression was quantified by RT, real-time PCR, by being run simultaneously with the target, multiplexing, or separately. Total RNA was quantified using RiboGreen™ RNA quantification reagent (Molecular Probes, Inc. Eugene, Oreg.).
A series of oligomeric compounds was designed to target different regions of human glucose-6-phosphatase translocase, using published sequences cited in Table 1. All compounds in Table 4 are chimeric oligonucleotides (“gapmers”) 20 nucleotides in length, composed of a central “gap” region consisting of 10 2′-deoxynucleotides, which is flanked on both sides (5′ and 3′) by five-nucleotide “wings”. The wings are composed of 2′-O-(2-methoxyethyl) nucleotides, also known as 2′-MOE nucleotides. […]

[3] = Body weight and tissue weights of normal Sprague-Dawley rats (Table 13); settings: for Spleen weight / Fat weight / Kidney weight / Liver weight: end of study
Method: For three weeks, male Sprague-Dawley rats were injected twice-weekly with doses of 12.5 mg/kg, 25 mg/kg, or 50 mg/kg of ISIS 145760, ISIS 359543, or ISIS 366228. Each treatment group was comprised of 4 animals. Animals which received twice weekly injections of saline served as controls.
Body weight was monitored throughout the study period. […] Tissue weights were also measured at the end of the study.

[4] = system: glucose-6-phosphatase translocase mRNA; assay: Target reduction in liver: rat dose-response study (Table 12); format: in vivo; settings: Sprague-Dawley rats; for % Inhibition, target reduction in liver: three weeks
Method: (§1) Each treatment group was comprised of 4 animals.
At the end of the treatment period, animals were sacrificed and target reduction in liver was measured by real-time PCR as described in other examples herein. Results are shown in Table 12 as the average percent reduction in glucose-6-phosphatase translocase levels as compared to saline treated control.

[5] = Plasma glucose, cholesterol and triglycerides in normal Sprague-Dawley rats (Table 14); format: in vivo, rat; design: plasma GLUCOSE WK 0 / plasma GLUCOSE WK 3: unit not given beside the values
Method: as §1
To further assess the physiological effects resulting from inhibition of target mRNA, the rats were evaluated at the beginning (Wk 0) and at the end (Wk 3) of the treatment period for plasma glucose, plasma cholesterol, and plasma triglyceride levels. Triglycerides and cholesterol were measured by routine clinical analyzer instruments (e.g. Olympus Clinical Analyzer, Melville, N.Y.). Glucose levels were measured using a glucose analyzer, for example a YSI glucose analyzer (YSI Scientific, Yellow Springs, Ohio). Results are presented in Table 14 as the average level of plasma glucose, plasma cholesterol (CHOL), or plasma triglycerides (TRIG) measured per treatment group.

With “AGGGTGCTCTCCTCCTTCAA (eA*eG*eG*eG*eT*dG*d[5mC]*dT*d[5mC]*dT*d[5mC]*d[5mC]*dT*d[5mC]*d[5mC]*eT*eT*e[5mC]*eA*eA; antisense) [ISIS 194855]” the “% Inhib” value [1] was 57% and the “% Inhib” value [2] was 66%.

In the case of “GTGCTTGGCAATGGTGCTGA (eG*eT*eG*e[5mC]*eT*dT*dG*dG*d[5mC]*dA*dA*dT*dG*dG*dT*eG*e[5mC]*eT*eG*eA; antisense) [ISIS 359543]”, the Spleen weight ([3]; 12.5 mg/kg twice weekly, saline 0.7) is reported as 0.9 grams, the Fat weight ([3]; 12.5 mg/kg twice weekly, saline 1.8) is reported as 1.4 grams and the Kidney weight ([3]; 12.5 mg/kg twice weekly, saline 3) is reported as 3 grams. For the same sequence, the Liver weight ([3]; 12.5 mg/kg twice weekly, saline 15) was 15 grams, the Body weight ([3]; 12.5 mg/kg twice weekly, week 3, saline 290) was 285 grams and the Fat weight ([3]; 25 mg/kg twice weekly) was 1.3 grams. The Kidney weight ([3]; 25 mg/kg twice weekly) was 3 grams, the Liver weight ([3]; 25 mg/kg twice weekly) was 16 grams and the Spleen weight ([3]; 25 mg/kg twice weekly) was 1.1 grams. For the same sequence, the Body weight ([3]; 25 mg/kg twice weekly, week 3) was 295 grams, the Fat weight ([3]; 50 mg/kg twice weekly) was 1.0 grams and the Kidney weight ([3]; 50 mg/kg twice weekly) was 3 grams. It also gave a Liver weight ([3]; 50 mg/kg twice weekly) of 13 grams, a Spleen weight ([3]; 50 mg/kg twice weekly) of 1.4 grams and a Body weight ([3]; 50 mg/kg twice weekly, week 3) of 277 grams. The “Increases in body weights (in words)” value ([3]; 12.5 to 50 mg/kg, throughout the study) was “comparable to the increases in body weight observed for saline-treated control animals”, the “% Inhibition, target reduction in liver” value ([4]; 12.5 mg/kg twice weekly) was 50% and the “% Inhibition, target reduction in liver” value ([4]; 25 mg/kg twice weekly) was 62%. For the same sequence, the “% Inhibition, target reduction in liver” value ([4]; 50 mg/kg twice weekly) was 77%, the “target mRNA levels in rat liver (in words)” value ([4]; 12.5 to 50 mg/kg) was “effective in reducing target mRNA levels in rat liver in a dose-dependent manner” and the “plasma cholesterol (CHOL) WK 3” value ([5]; 12.5 mg/kg twice weekly, saline 58) was 57. The “plasma triglycerides (TRIG) WK 0” value ([5]; 12.5 mg/kg twice weekly, saline 69) was 69, the “plasma cholesterol (CHOL) WK 0” value ([5]; 12.5 mg/kg twice weekly, saline 74) was 80 and the “plasma GLUCOSE WK 0” value ([5]; 12.5 mg/kg twice weekly, saline 135) was 138. For the same sequence, the “plasma GLUCOSE WK 3” value ([5]; 12.5 mg/kg twice weekly, saline 139) was 165, the “plasma triglycerides (TRIG) WK 3” value ([5]; 12.5 mg/kg twice weekly, saline 140) was 61 and the “plasma GLUCOSE WK 0” value ([5]; 25 mg/kg twice weekly) was 138. For the same sequence, the “plasma GLUCOSE WK 3” value ([5]; 25 mg/kg twice weekly) was 154, the “plasma cholesterol (CHOL) WK 0” value ([5]; 25 mg/kg twice weekly) was 82 and the “plasma cholesterol (CHOL) WK 3” value ([5]; 25 mg/kg twice weekly) was 57. For the same sequence, the “plasma triglycerides (TRIG) WK 0” value ([5]; 25 mg/kg twice weekly) was 62, the “plasma triglycerides (TRIG) WK 3” value ([5]; 25 mg/kg twice weekly) was 37 and the “plasma GLUCOSE WK 0” value ([5]; 50 mg/kg twice weekly) was 135. The “plasma GLUCOSE WK 3” value ([5]; 50 mg/kg twice weekly) was 136, the “plasma cholesterol (CHOL) WK 0” value ([5]; 50 mg/kg twice weekly) was 87 and the “plasma cholesterol (CHOL) WK 3” value ([5]; 50 mg/kg twice weekly) was 54. For the same sequence, the “plasma triglycerides (TRIG) WK 0” value ([5]; 50 mg/kg twice weekly) was 69, the “plasma triglycerides (TRIG) WK 3” value ([5]; 50 mg/kg twice weekly) was 19 and the “plasma triglycerides (in words)” value ([5]; 12.5 to 50 mg/kg, three weeks) was “dose-dependent reductions in plasma triglycerides”. For the same sequence, the “% Inhib” value [2] was 74%.

In the case of “TGACTGCAGAAGTTTCCTGT (eT*eG*eA*e[5mC]*eT*dG*d[5mC]*dA*dG*dA*dA*dG*dT*dT*dT*e[5mC]*e[5mC]*eT*eG*eT; antisense) [ISIS 194838]”, the “% Inhib” value [1] is reported as 91% and the “% Inhib” value [2] is reported as 42%.

With “CCACCTATATCCAACTGCGC (e[5mC]*e[5mC]*eA*e[5mC]*e[5mC]*dT*dA*dT*dA*dT*d[5mC]*d[5mC]*dA*dA*d[5mC]*eT*eG*e[5mC]*eG*e[5mC]; antisense) [ISIS 194839]” the “% Inhib” value [1] was 83% and the “% Inhib” value [2] was 75%.

For “CCCACTGACAAACTTGCTGA (e[5mC]*e[5mC]*e[5mC]*eA*e[5mC]*dT*dG*dA*d[5mC]*dA*dA*dA*d[5mC]*dT*dT*eG*e[5mC]*eT*eG*eA; antisense) [ISIS 194850]”, the “% Inhib” value [1] was 88% and the “% Inhib” value [2] was 38%.
